Key:
[1] = tested on: patients with nonconstipation irritable bowel syndrome (non-C IBS); experiment: Trial of rifaximin 550 mg TID for 14 days with 10-week follow-up (Example 5; Study 2 of Example 6); assay type: in vivo, human
Description: A measure of efficacy is based on subjects' answers to the Weekly Subject Global Assessment (SGA) questions over the 4 week study duration in relation to their IBS symptoms. […] Another measure of efficacy is based on subjects' answers to the Weekly Subject Global Assessment (SGA) question over the 4 week study duration in relation to their IBS symptom of bloating. The SGA question is asked weekly as follows: “In the past 7 days, have you had adequate relief of your IBS symptom of bloating?” (Yes/No). […] Other measures of efficacy include the changes in dIBS symptoms from baseline to each week of the 4 weeks in the study (e.g., abdominal pain and discomfort, bloating, number of stools per day, stool consistency, urgency with loose or watery stools).
The primary efficacy endpoint of the study was the proportion of subjects who achieve adequate relief of IBS symptoms for at least 2 weeks during 10 the first 4 weeks of the 10-week follow-up phase.
Two measures of efficacy were assessed.
Subjects were questioned on the relief of overall IBS symptoms and bloating. […] The analyses defined success as a “yes” response to questions regarding adequate relief.
Assessment (SGA) questions over the 4 week study duration in relation to their IBS symptoms. […] Another measure of efficacy is based on subjects' answers to the Weekly Subject Global Assessment (SGA) question over the 4 week study duration in relation to their IBS symptom of bloating. The SGA question is asked weekly as follows: “In the past 7 days, have you had adequate relief of your IBS symptom of bloating'?” (Yes/No).
All subpopulations in the study responded to therapy. Baseline severity was determined during screening for Abdominal Pain/Discomfort and Bloating, and the number, type (normal, hard, loose) and urgency of bowel movements. Duration of effect was assessed in a ten week follow-up period.
A measure of efficacy is based on subjects' answers to the Weekly Subject Global Assessment (SGA) questions over the study duration in relation to their IBS symptoms.

[2] = as previously disclosed by Applicants; cited from earlier work
[3] = IBS Subtype: Diarrhoea-predominant, Rifaximin 550 mg TID
[4] = Population: ITT, Rifaximin 550 mg TID (N = 315)
[5] = Population: PP, Rifaximin 550 mg TID (N = 311)
[6] = Population: PP, Rifaximin 550 mg TID (N = 311), Weeks 3 through 6
[7] = Race: Non-White, Rifaximin 550 mg TID (N = 31)
[8] = Race: White, Rifaximin 550 mg TID (N = 280)
[9] = Rifaximin 550 mg TID (N = 315), weekly SGA, at least 2 of Weeks 3 through 6, LOCF
[10] = Study 2, at least 2 out of 4 weeks adequate relief during weeks 3 through 6 (weekly question)
[11] = Study 2, at least 2 weeks during PEP

Substance: (2S,16Z,18E,20S,21S,22R, 23R,24R,25S,26S,27S,28E)-5,6,21,23,25 Pentahydroxy-27-methoxy -2,4,11,16,20,22,24,26-octamethyl-2,7-(epoxypentadeca-(1,11,13)trienimino)benzofuro (4,5-e) pyrido(1,2,-a) benzimidazole-1,15(2H)-dione,25-acetate [Rifaximin]
- Adequate Relief of IBS symptoms: Failure [1, 3]: 166 (59.9%) N (%)
- Adequate Relief of IBS symptoms: Success [1, 3]: 111 (40.1%) N (%)
- Adequate Relief of IBS symptom of Bloating Based on Daily Measures: Failure [1, 4]: 182 (57.8%) N (%)
- Adequate Relief of IBS symptom of Bloating Based on Daily Measures: Success [1, 4]: 133 (42.2%) N (%)
- Adequate Relief of IBS symptoms Based on Daily Measures: Failure [1, 4]: 200 (63.5%) N (%)
- Adequate Relief of IBS symptoms Based on Daily Measures: Success [1, 4]: 115 (36.5%) N (%)
- Adequate Relief of IBS symptom of Bloating Based on Daily Measures: Failure [1, 5]: 180 (57.9%) N (%)
- Adequate Relief of IBS symptom of Bloating Based on Daily Measures: Success [1, 5]: 131 (42.1%) N (%)
- Adequate Relief of IBS symptoms Based on Daily Measures: Failure [1, 5]: 196 (63.0%) N (%)
- Adequate Relief of IBS symptoms Based on Daily Measures: Success [1, 5]: 115 (37.0%) N (%)
- Adequate Relief of IBS symptom of Bloating: Failure [1, 6]: 187 (60.1%) N (%)
- Adequate Relief of IBS symptom of Bloating: Success [1, 6]: 124 (39.9%) N (%)
- Adequate Relief of IBS symptoms: Failure [1, 6]: 187 (60.1%) N (%)
- Adequate Relief of IBS symptoms: Success [1, 6]: 124 (39.9%) N (%)
- Adequate Relief of IBS symptom of Bloating: Failure [1, 7]: 17 (54.8%) N (%)
- Adequate Relief of IBS symptom of Bloating: Success [1, 7]: 14 (45.2%) N (%)
- Adequate Relief of IBS symptoms: Failure [1, 7]: 16 (51.6%) N (%)
- Adequate Relief of IBS symptoms: Success [1, 7]: 15 (48.4%) N (%)
- Adequate Relief of IBS symptom of Bloating: Failure [1, 8]: 170 (60.7%) N (%)
- Adequate Relief of IBS symptom of Bloating: Success [1, 8]: 110 (39.3%) N (%)
- Adequate Relief of IBS symptoms: Failure [1, 8]: 171 (61.1%) N (%)
- Adequate Relief of IBS symptoms: Success [1, 8]: 109 (38.9%) N (%)
- Adequate Relief of IBS symptom of Bloating: Failure [1, 9]: 190 (60.3%) n (%)
- Adequate Relief of IBS symptom of Bloating: Success [1, 9]: 125 (39.7%) n (%)
- Adequate Relief of IBS symptoms: Failure [1, 9]: 190 (60.3%) n (%)
- Adequate Relief of IBS symptoms: Success [1, 9]: 125 (39.7%) n (%)
- Daily abdominal pain <2, responders ([1]; Study 2, <2 for at least 50% of days in a week for at least 2 weeks during PEP): 39%
- Global IBS symptoms, responders [1, 10]: 41%
- IBS symptom of Bloating, responders [1, 10]: 41%
- Abdominal Pain reduction of 2 point in mean, responders [1, 11]: 25%
- Abdominal Pain reduction of 2 point in median, responders [1, 11]: 41%
- Abdominal Pain reduction of 3 point in mean, responders [1, 11]: 6% vs 7%
- Abdominal Pain reduction of 3 point in median, responders [1, 11]: 21%
- Overall reduction of mean weekly abdominal pain by >=25%, responders [1, 11]: 58%
- Overall reduction of mean weekly abdominal pain by >=50%, responders [1, 11]: 35%
- Overall reduction of mean weekly abdominal pain by >=75%, responders [1, 11]: 14%
- Overall reduction of median weekly abdominal pain by >=25%, responders [1, 11]: 62%
- Overall reduction of median weekly abdominal pain by >=50%, responders [1, 11]: 44%
- Overall reduction of median weekly abdominal pain by >=75%, responders [1, 11]: 20%
- Abdominal pain reduction of 1 point in mean, responders ([1]; Study 2, weekly mean vs baseline for at least 2 weeks during PEP): 52%
- Abdominal pain reduction of 1 point in median, responders ([1]; Study 2, weekly median vs baseline for at least 2 weeks during PEP): 62%
- % with decrease in SF (stool frequency) ([1]; Week 1, Rifaximin 550 mg TID): 14.4%
- % with decrease in SF (stool frequency) ([1]; Week 2, Rifaximin 550 mg TID): 20.6%
- % with decrease in SF (stool frequency) ([1]; Week 3, Rifaximin 550 mg TID): 22.2%
- % with decrease in SF (stool frequency) ([1]; Week 4, Rifaximin 550 mg TID): 21.6%
- % with decrease in SF (stool frequency) ([1]; Week 5, Rifaximin 550 mg TID): 25.7%
- % with decrease in SF (stool frequency) ([1]; Week 6, Rifaximin 550 mg TID): 22.9%
- % with decrease in SF (stool frequency) ([1]; Week 7, Rifaximin 550 mg TID): 23.8%
- % with decrease in SF (stool frequency) ([1]; Week 8, Rifaximin 550 mg TID): 24.4%
- % with decrease in SF (stool frequency) ([1]; Week 9, Rifaximin 550 mg TID): 25.4%
- % with decrease in SF (stool frequency) ([1]; Week 10, Rifaximin 550 mg TID): 26.7%
- % with decrease in SF (stool frequency) ([1]; Week 11, Rifaximin 550 mg TID): 25.4%
- % with decrease in SF (stool frequency) ([1]; Week 12, Rifaximin 550 mg TID): 27.0%
- Rifaximin exposure in healthy subjects compared with subjects having hepatic encephalopathy [2]: significantly lower

Source: patent US11564912B2, “Methods for treating irritable bowel syndrome (IBS)” (Salix Pharmaceuticals, Inc., priority 2008, dated 2023)
